In PubChem BioAssay (NCI):
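The concentration for 50% growth inhibition is given as GI50. The concentration for full growth arrest is given as TGI.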

What was measured:
Test in all cases: NCI tumour cell line growth inhibition, 384-well format
MOLT-4 leukemia = system: MOLT-4 leukemia
OVCAR-5 ovarian = system: OVCAR-5 ovarian
UACC-62 melanoma = system: UACC-62 melanoma
HCC-2998 colon = system: HCC-2998 colon
CCRF-CEM leukemia = system: CCRF-CEM leukemia
PC-3 prostate = system: PC-3 prostate
NCI-H522 lung = system: NCI-H522 lung
SF-539 CNS = system: SF-539 CNS
DU-145 prostate = system: DU-145 prostate
MALME-3M melanoma = system: MALME-3M melanoma
TK-10 renal = system: TK-10 renal
IGROV1 ovarian = system: IGROV1 ovarian
EKVX NSCLC = system: EKVX NSCLC
ACHN renal = system: ACHN renal
KM12 colon = system: KM12 colon
OVCAR-8 ovarian = system: OVCAR-8 ovarian
NCI-H23 lung = system: NCI-H23 lung
786-0 renal = system: 786-0 renal
RPMI-8226 leukemia = system: RPMI-8226 leukemia
HT29 colon = system: HT29 colon
LOX IMVI melanoma = system: LOX IMVI melanoma
MDA-MB-231 breast = system: MDA-MB-231 breast
SF-295 CNS = system: SF-295 CNS
SW-620 colon = system: SW-620 colon

SMILES: C[C@@H](c1ccc2nccn2c1)n1nnc2ncc(-c3cnn(C)c3)nc21
- GI50 (MOLT-4 leukemia): 51.5 µM
- TGI (MOLT-4 leukemia): > 100 µM
- GI50 (OVCAR-5 ovarian): > 100 µM
- TGI (OVCAR-5 ovarian): > 100 µM
- GI50 (UACC-62 melanoma): > 100 µM
- TGI (UACC-62 melanoma): > 100 µM
- GI50 (HCC-2998 colon): > 100 µM
- TGI (HCC-2998 colon): > 100 µM
- GI50 (CCRF-CEM leukemia): > 71.6 µM
- TGI (CCRF-CEM leukemia): > 100 µM
- GI50 (PC-3 prostate): > 100 µM
- TGI (PC-3 prostate): > 100 µM
- GI50 (NCI-H522 lung): > 75.5 µM
- TGI (NCI-H522 lung): > 100 µM
- GI50 (SF-539 CNS): > 100 µM
- TGI (SF-539 CNS): > 100 µM
- GI50 (DU-145 prostate): > 100 µM
- TGI (DU-145 prostate): > 100 µM
- GI50 (MALME-3M melanoma): > 100 µM
- TGI (MALME-3M melanoma): > 100 µM
- GI50 (TK-10 renal): > 100 µM
- TGI (TK-10 renal): > 100 µM
- GI50 (IGROV1 ovarian): > 100 µM
- TGI (IGROV1 ovarian): > 100 µM
- GI50 (EKVX NSCLC): > 100 µM
- TGI (EKVX NSCLC): > 100 µM
- GI50 (ACHN renal): > 100 µM
- TGI (ACHN renal): > 100 µM
- GI50 (KM12 colon): 35 µM
- TGI (KM12 colon): > 100 µM
- GI50 (OVCAR-8 ovarian): > 100 µM
- TGI (OVCAR-8 ovarian): > 100 µM
- GI50 (NCI-H23 lung): 20.6 µM
- TGI (NCI-H23 lung): > 100 µM
- GI50 (786-0 renal): > 100 µM
- TGI (786-0 renal): > 100 µM
- GI50 (RPMI-8226 leukemia): > 68.8 µM
- TGI (RPMI-8226 leukemia): > 100 µM
- GI50 (HT29 colon): > 100 µM
- TGI (HT29 colon): > 100 µM
- GI50 (LOX IMVI melanoma): > 65.9 µM
- TGI (LOX IMVI melanoma): > 100 µM
- GI50 (MDA-MB-231 breast): > 100 µM
- TGI (MDA-MB-231 breast): > 100 µM
- GI50 (SF-295 CNS): 25.2 µM
- TGI (SF-295 CNS): > 100 µM
- GI50 (SW-620 colon): > 100 µM
